Assay results: US9926292B2, “Pyridinyl derivatives, pharmaceutical compositions and uses thereof” (Boehringer Ingelheim International GmbH, priority 2016, dated 2018)
Where two headings read alike, the source gives them in different places.

Legend:
AOC1 = molecular target: T1, AOC1 (Homo sapiens, UniProt P19801); test: AOC1 biochemical assay (Amplex Red)
T1 construct: purchased R&D Systems 8297-AO-010
T1 sequence (P19801 20-751): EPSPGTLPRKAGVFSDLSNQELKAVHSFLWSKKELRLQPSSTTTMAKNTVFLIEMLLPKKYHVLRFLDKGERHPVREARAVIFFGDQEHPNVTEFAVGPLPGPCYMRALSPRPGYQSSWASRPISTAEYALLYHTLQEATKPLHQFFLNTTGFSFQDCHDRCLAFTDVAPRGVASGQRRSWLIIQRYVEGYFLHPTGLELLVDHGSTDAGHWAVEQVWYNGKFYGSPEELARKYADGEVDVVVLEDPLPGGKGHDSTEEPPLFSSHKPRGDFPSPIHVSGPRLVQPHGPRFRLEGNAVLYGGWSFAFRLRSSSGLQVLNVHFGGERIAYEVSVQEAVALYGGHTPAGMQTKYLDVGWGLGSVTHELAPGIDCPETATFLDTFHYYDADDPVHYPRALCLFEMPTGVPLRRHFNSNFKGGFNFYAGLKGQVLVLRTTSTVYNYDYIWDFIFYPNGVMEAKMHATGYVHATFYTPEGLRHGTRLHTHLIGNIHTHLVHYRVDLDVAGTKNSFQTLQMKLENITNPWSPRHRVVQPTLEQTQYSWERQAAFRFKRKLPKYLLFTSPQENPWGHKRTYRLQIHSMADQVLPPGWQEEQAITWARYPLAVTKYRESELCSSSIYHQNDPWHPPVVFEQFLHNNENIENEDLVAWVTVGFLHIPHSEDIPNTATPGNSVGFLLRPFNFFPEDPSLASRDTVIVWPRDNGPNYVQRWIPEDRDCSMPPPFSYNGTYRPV
Excerpt: The Amplex® Red Assay (available from Thermo Fisher Scientific) provides a sensitive method for the detection of H2O2 generated during enzymatic reactions like the amine oxidation catalyzed by AOC1.

AOC3 = molecular target: T2, AOC3 (Homo sapiens, UniProt Q16853); test: AOC3 biochemical assay (MAO-Glo)
T2 construct: expressed in transfected cells; host or cells: CHO cells
T2 sequence (Q16853 1-763): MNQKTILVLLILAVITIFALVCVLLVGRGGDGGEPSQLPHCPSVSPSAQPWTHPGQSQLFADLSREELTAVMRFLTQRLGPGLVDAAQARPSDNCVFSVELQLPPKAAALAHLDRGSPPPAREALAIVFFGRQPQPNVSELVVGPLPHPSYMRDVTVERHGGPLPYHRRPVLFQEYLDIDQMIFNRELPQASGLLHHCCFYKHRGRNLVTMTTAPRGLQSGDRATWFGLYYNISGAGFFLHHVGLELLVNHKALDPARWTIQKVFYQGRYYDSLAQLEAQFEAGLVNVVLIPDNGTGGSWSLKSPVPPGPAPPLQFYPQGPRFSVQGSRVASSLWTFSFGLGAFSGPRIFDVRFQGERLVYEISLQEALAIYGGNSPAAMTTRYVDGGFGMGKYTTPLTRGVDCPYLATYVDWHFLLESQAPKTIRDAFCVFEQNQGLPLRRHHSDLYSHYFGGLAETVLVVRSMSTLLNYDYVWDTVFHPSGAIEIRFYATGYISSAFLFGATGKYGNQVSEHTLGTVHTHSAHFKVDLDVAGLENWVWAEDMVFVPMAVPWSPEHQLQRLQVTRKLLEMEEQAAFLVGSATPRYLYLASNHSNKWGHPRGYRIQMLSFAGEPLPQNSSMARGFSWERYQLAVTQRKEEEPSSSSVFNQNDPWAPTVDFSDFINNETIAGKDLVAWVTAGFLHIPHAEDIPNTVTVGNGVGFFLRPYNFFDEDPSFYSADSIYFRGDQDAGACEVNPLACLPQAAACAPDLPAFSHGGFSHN
Experimental: As substrate a derivate of the beetle luciferin ((4S)-4,5-dihydro-2-(6-hydroxybenzothiazolyl)-4-thiazole-carboxylic acid) is used, which is oxidized at a primary amine moiety. After a spontaneous elimination and a catalyzed esterase reaction, the turnover of the luciferine by the luciferase is recorded as a signal of AOC3 activity.
Recombinant CHO cells, overexpressing the human (1500 cells/well), mouse (1000 cells/well) or rat (500 cells/well) AOC3 enzyme are diluted in reaction buffer and added in a volume of 15 μL to the wells. After incubation for 20 minutes at 37° C., 2 μL of MAO substrate (dissolved in DMSO at 16 mM, adjusted to assay concentration in reaction buffer to a final assay concentration of 20 μM) is added and further incubated for 60 minutes at 37° C. The turnover of the substrate is determined by the addition of 20 μL of the detection-mix which was generated by the addition of reconstitution buffer with esterase (PROMEGA, #V1402) to the luciferine detection reagent (PROMEGA, #V1402).

[1] = Table 2, comparison with compounds of EP 2 695 881, read-out: IC50 AOC1
[2] = Table 2, comparison with compounds of EP 2 695 881, read-out: IC50 AOC3

Row | SMILES | IC50 (AOC1; Table 1, read-out: AOC1 IC50) [nM] | IC50 (AOC3; Table 1, read-out: AOC3 IC50) [nM] | IC50 (AOC1; [1]) [nM] | IC50 (AOC3; [2]) [nM] | melting point [°C]
1 | N#CC1(COc2ncc(-c3cccc(COC(=O)NC(=N)N)n3)cn2)CCC1 [Example 27] | 3770 | 4 |  |  | 
2 | N=C(N)NC(=O)OCc1cccc(-c2cnc(OCC3CCN(C(=O)C4CC4)CC3)nc2)n1 [Example 38] | 322 | 3 |  |  | 
3 | N=C(N)NC(=O)OCc1cccc(-c2cnc(OCc3cncs3)nc2)n1 [Example 29] | 659 | 2 |  |  | 
4 | N=C(N)NC(=O)OCc1cccc(-c2cnc(O[C@H]3CCOC3)nc2)n1 [Example 15] | 5190 | 8 |  |  | 
5 | N=C(N)NC(=O)OCc1cccc(-c2cnc(N3CCOCC3)nc2)c1F [Ex. 81, p. 229, reference compound] |  |  | 174 | 1 | 
6 | COCCOc1ncc(-c2cccc(COC(=O)NC(=N)N)n2)cn1 [Example 10] | 3480 | 11 |  |  | 
7 | C[C@@H](F)COc1ncc(-c2cccc(COC(=O)NC(=N)N)n2)cn1 [Example 11] | 2390 | 5 |  |  | 
8 | N=C(N)NC(=O)OCc1cccc(-c2cnc(OCc3cnns3)nc2)n1 [Example 34] | 503 | 2 |  |  | 
9 | COC1CN(c2ncc(-c3cccc(COC(=O)NC(=N)N)n3)cn2)C1 [Example 13] | 1480 | 2 |  |  | 
10 | N=C(N)NC(=O)OCc1cccc(-c2cnc(OCc3csnn3)nc2)n1 [Example 35] | 1020 | 3 |  |  | 
11 | N=C(N)NC(=O)OCc1cccc(-c2cnc(OCC3CCN(C(=O)C4CC4)CC3)nc2)c1F [Ex. 74, p. 229, reference compound] |  |  | 8 | 1 | 
12 | N=C(N)NC(=O)OCc1cccc(-c2cnc(OC[C@H]3CC3(F)F)nc2)n1 [Example 26, [6-[2-[[(1R)-2,2-difluorocyclopropyl]methoxy]pyrimidin-5-yl]-2-pyridyl]methyl N-carbamimidoylcarbamate] | 2520 | 3 |  |  | 193 to 196
13 | CCCOc1ncc(-c2cccc(COC(=O)NC(=N)N)n2)cn1 [Example 07, [6-(2-propoxypyrimidin-5-yl)-2-pyridyl]methyl N-carbamimidoylcarbamate] | 2010 | 5 |  |  | 
14 | CCOc1ncc(-c2cccc(COC(=O)NC(=N)N)n2)cn1 [Example 05] | 2390 | 15 |  |  | 
15 | N=C(N)NC(=O)OCc1cccc(-c2cnc(C3CC3)nc2)n1 [Example 03, [6-(2-cyclopropylpyrimidin-5-yl)-2-pyridyl]methyl N-carbamimidoylcarbamate] | 8030 | 8 |  |  | 
16 | CCOc1ncc(-c2cccc(COC(=O)NC(=N)N)c2F)cn1 [Ex. 136, p. 235, reference compound] |  |  | 60 | 6 | 
17 | N=C(N)NC(=O)OCc1cccc(-c2cnc(N3CCOCC3)nc2)n1 [Example 14] | 1340 | 3 |  |  | 
18 | N=C(N)NC(=O)OCc1cccc(-c2ccc(OCc3ccon3)nc2)n1 [Example 23] | 3820 | 2 |  |  | 
19 | COCCOc1ncc(-c2cccc(COC(=O)NC(=N)N)c2F)cn1 [Ex. 197, p. 243, reference compound] |  |  | 97 | 6 | 
20 | COc1ncc(-c2cccc(COC(=O)NC(=N)N)n2)cn1 [Example 02] | 8070 | 10 |  |  | 
21 | N=C(N)NC(=O)OCc1cccc(-c2cnc(OCc3cscn3)nc2)n1 [Example 30] | 978 | 3 |  |  | 

Row | SMILES | IC50 (AOC1; Table 1, read-out: AOC1 IC50) [nM] | IC50 (AOC3; Table 1, read-out: AOC3 IC50) [nM] | IC50 (AOC1; [1]) [nM] | IC50 (AOC3; [2]) [nM] | melting point [°C]
22 | CC(=O)N1CCC(COc2ncc(-c3cccc(COC(=O)NC(=N)N)c3F)cn2)CC1 [Ex. 11, p. 221, reference compound] |  |  | 6 | 1 | 
23 | COC1CN(c2ncc(-c3cccc(COC(=O)NC(=N)N)c3F)cn2)C1 [Ex. 63, p. 227, reference compound] |  |  | 100 | 1 | 
24 | N=C(N)NC(=O)OCc1cccc(-c2cnc(OCC3(F)CC3)nc2)n1 [Example 17, [6-[2-[(1-fluorocyclopropyl)methoxy]pyrimidin-5-yl]-2-pyridyl]-methyl N-carbamimidoylcarbamate] | 3620 | 5 |  |  | 
25 | COCCN(C)c1ncc(-c2cccc(COC(=O)NC(=N)N)n2)cn1 [Example 16] | 718 | 9 |  |  | 
26 | N=C(N)NC(=O)OCc1cccc(-c2cnc(OCc3nccs3)nc2)n1 [Example 31] | 612 | 3 |  |  | 
27 | N#CC1(COc2ncc(-c3cccc(COC(=O)NC(=N)N)n3)cn2)CC1 [Example 21] | 3190 | 4 |  |  | 
28 | CN(C)c1ncc(-c2cccc(COC(=O)NC(=N)N)n2)cn1 [Example 04] | 1720 | 5 |  |  | 
29 | CC(F)(F)CNc1ncc(-c2cccc(COC(=O)NC(=N)N)n2)cn1 [Example 19] |  | 9 |  |  | 
30 | Cc1ncc(-c2cccc(COC(=O)NC(=N)N)n2)cn1 [Example 01] | 7600 | 27 |  |  | 
31 | CC(Oc1ncc(-c2cccc(COC(=O)NC(=N)N)n2)cn1)c1ccon1 (centres unmarked) [Example 28] | 3290 | 15 |  |  | 
32 | CC(F)(F)COc1ncc(-c2cccc(COC(=O)NC(=N)N)n2)cn1 [Example 20, [6-[2-(2,2-difluoropropoxy)pyrimidin-5-yl]-2-pyridyl]methyl N-carbamimidoylcarbamate] | 7210 | 5 |  |  | 195
33 | N=C(N)NC(=O)OCc1cccc(-c2cnc(C3CCOCC3)nc2)n1 [Example 12] | 7530 | 5 |  |  | 
34 | CC(=O)N1CCC(COc2ncc(-c3cccc(COC(=O)NC(=N)N)n3)cn2)CC1 [Example 37] | 227 | 3 |  |  | 
35 | CN(c1ncc(-c2cccc(COC(=O)NC(=N)N)n2)cn1)C1CCOCC1 [Example 32] | 710 | 2 |  |  | 
36 | COCCNc1ncc(-c2cccc(COC(=O)NC(=N)N)n2)cn1 [Example 09] | 1410 | 7 |  |  | 
37 | N=C(N)NC(=O)OCc1cccc(-c2cnc(OCC3CCOCC3)nc2)n1 [Example 33] | 899 | 3 |  |  | 
38 | CC(F)(F)COc1ccc(-c2cccc(COC(=O)NC(=N)N)n2)cn1 [Example 18] | 1400 | 3 |  |  | 
39 | CSc1ncc(-c2cccc(COC(=O)NC(=N)N)n2)cn1 [Example 06] | 10200 | 15 |  |  | 
40 | CN(c1ncc(-c2cccc(COC(=O)NC(=N)N)n2)cn1)C1CCOC1 (centres unmarked) [Example 25] | 483 | 3 |  |  | 
41 | C#CCCOc1ncc(-c2cccc(COC(=O)NC(=N)N)n2)cn1 [Example 08, [6-(2-but-3-ynoxypyrimidin-5-yl)-2-pyridyl]methyl N-carbamimidoylcarbamate] | 2690 | 4 |  |  | 
